Data published in patent US20260305620A1, “NOVEL INSECTICIDAL MIXTURES FOR CONTROLLING AND PROTECTING CROPS” (ADAMA MAKHTESHIM LTD., priority 2023, published 2026).
Where two headings read alike, the source gives them in different places.

Tested on: Aphis gossypii
Experiment: Mortality of Aphis gossypii adults + progeny on sprayed pepper leaf disks; synergy/antagonism of garlic extract mixtures by Colby's formula
Assay type: in vivo, Aphis gossypii (cotton aphid)
Settings: for mortality at 0.1 ppm: 0.1 ppm ai; for mortality at 5 ppm: read-out: Mortality Observed, alone, 5 ppm ai; for mortality at 0.2 ppm: 0.2 ppm ai; for mortality at 0.8 ppm: read-out: Mortality Observed, alone, 0.8 ppm ai
Protocol: Evaluating the synergistic or antagonistic effects of garlic extract and other insecticides on Aphis gossypii in pepper crop.
Pepper plants of Makko F1 cv, obtained from seeds, were grown at totally controlled conditions in a growing chamber. Healthy and untreated Pepper plants were used at least two months after seeding to get leaf disks suitable to be exposed to Aphis gossypii adults.
The aphids' adults were obtained from mass rearing; aphids were reared on cucumber and zucchini plants under controlled environmental conditions.
Suitable leaves were collected from pepper plants. Leaf disks were prepared together with arenas containing a layer of water agar on the base. 8 leaf disks per treatment were obtained from the collected leaves and 20 adults/arena were inoculated.
Each arena was sprayed, using an electric low pressure hand sprayer, with the corresponding insecticide mixture. Tween 80 surfactant, at the rate of 0.05% was added in each treatment mixture.
The untreated check was sprayed with distilled water together with Tween 80 surfactant at a dose of 0.05%.
The experimental arenas were kept in a growth chamber under controlled climatic conditions: 21° C. (±0.5), 60% RH and 16:8 light:dark photoperiod regime. The assessment of mortality (as % of died adults+progeny) was performed according to the characteristics of each Active Ingredient.
Garlic extract a) and the additional pesticide b) were priorly calibrated to obtain the Dose Response Curve and the Lethal Dose (ppm) values; according to the calibrations the mixing protocols were obtained at the proper mixing ratios.
All the statistical procedures [Student-Newman-Keuls (SNK), Dose response analysis (Probit, confidence level 95%) Anova and other calculation analysis] were performed using the ARM 2020.0 software.
The evaluation of Synergy or Antagonism of the two active ingredients was performed by using the Colby's formula, above described: […]
in which E represents the expected percentage of insecticidal control for the combination of the two insecticides at defined doses, A is the percentage of insecticidal control observed by the compound (I) at a defined dose (for example, a), B is the percentage of insecticidal control observed by the compound (II) at a defined dose (for example, b). When the ratio between the observed percentage of insecticidal control for the combination of the two insecticides at defined doses and the expected percentage of insecticidal control for the combination of the two insecticides at defined doses is greater than 1.15, the effect is synergistic.

[1] = Aphis gossypii, foliar, alone, read-out: Mortality Observed
[2] = Aphis gossypii, foliar, alone, 1 ppm ai, read-out: Mortality Observed
[3] = Aphis gossypii, foliar, alone, 2 ppm ai, read-out: Mortality Observed
[4] = Aphis gossypii, foliar, read-out: Mortality Observed, alone, 1 ppm ai

## C/C(=N\C#N)N(C)Cc1ccc(Cl)nc1 [Acetamiprid, acetamiprid]
Aphis gossypii, foliar, alone, 0.01 ppm ai, read-out: Mortality Observed
  mortality at 0.01 ppm: 48.9%
Aphis gossypii, foliar, alone, 0.05 ppm ai, read-out: Mortality Observed
  mortality at 0.05 ppm: 25%
[1]
  mortality at 0.1 ppm: 48.9%

## N#Cc1nn(-c2c(Cl)cc(C(F)(F)F)cc2Cl)c(N)c1[S+]([O-])C(F)(F)F (stereo not shown) [Fipronil, fipronil]
[1]
  mortality at 0.1 ppm: 35%
Aphis gossypii, foliar, alone, 0.5 ppm ai, read-out: Mortality Observed
  mortality at 0.5 ppm: 43.2%

## C/C=C(\C)C(=O)O[C@H]1C[C@@H](OC(C)=O)[C@@]2(C(=O)OC)CO[C@H]3[C@@H](O)[C@@](C)([C@]45O[C@@]4(C)[C@H]4C[C@@H]5O[C@@H]5OC=C[C@@]54O)[C@H]4[C@]1(CO[C@]4(O)C(=O)OC)[C@@H]32 [Azadirachtin, azadirachtin]
[2]
  mortality at 1 ppm: 22.7%
[3]
  mortality at 2 ppm: 28.9%

## C[C@]1(COC(=O)C2CC2)[C@@H]2C[C@H](O)[C@@]3(C)Oc4cc(-c5cccnc5)oc(=O)c4[C@H](O)[C@@H]3[C@@]2(C)CC[C@@H]1OC(=O)C1CC1 [Afidopyropen, afidopyropen]
Aphis gossypii, foliar, read-out: Mortality Observed, alone, 0.02 ppm ai
  mortality at 0.02 ppm: 25.3%
[4]
  mortality at 1 ppm: 37.3%
Aphis gossypii, foliar, read-out: Mortality Observed, alone, 2 ppm ai
  mortality at 2 ppm: 49.4%

## CC(C)c1cc(Oc2ccccc2)cc(C(C)C)c1NC(=S)NC(C)(C)C [Diafenthiuron, diafenthiuron]
[4]
  mortality at 1 ppm: 22.7%
Aphis gossypii, foliar
  mortality at 5 ppm: 26%
alone, 5 ppm ai
  Mortality Observed: 26.22%

## CC1(C)[C@H](C(=O)O[C@H](C#N)c2cccc(Oc3ccccc3)c2)[C@@H]1/C=C(\Cl)C(F)(F)F (racemic) [Lambda cyhalothrin, lambda-cyhalothrin]
[1]
  mortality at 0.2 ppm: 32.1%
Aphis gossypii, foliar, alone, 0.4 ppm ai, read-out: Mortality Observed
  mortality at 0.4 ppm: 37.6%

## CC(=O)N1C(=O)N(NCc2cccnc2)Cc2cc(C(F)(C(F)(F)F)C(F)(F)F)ccc21 [Pyrifluquinazon, pyrifluquinazon]
Aphis gossypii, foliar, read-out: Mortality Observed, alone, 0.08 ppm ai
  mortality at 0.08 ppm: 24.9%
Aphis gossypii, foliar, read-out: Mortality Observed, alone, 0.5 ppm ai
  mortality at 0.5 ppm: 42.7%
Aphis gossypii, foliar
  mortality at 0.8 ppm: 47.6%

## FC(F)(F)c1ccc(COc2ncncc2C2OCCCO2)cc1 [Benzpyrimoxan, benzpyrimoxan]
Aphis gossypii, foliar
  mortality at 0.8 ppm: 8.2%
  mortality at 5 ppm: 42%

## CC(C)[C@@H](Nc1ccc(C(F)(F)F)cc1Cl)C(=O)OC(C#N)c1cccc(Oc2ccccc2)c1 (stereo partly shown) [Tau fluvalinate, tau-fluvalinate]
[1]
  mortality at 0.1 ppm: 28.1%
  mortality at 0.2 ppm: 47.9%

## CCOC(=O)OC1=C(c2cc(C)ccc2C)C(=O)N[C@]12CC[C@@H](OC)CC2 [Spirotetramat, spirotetramat]
[2]
  mortality at 1 ppm: 23.5%
[3]
  mortality at 2 ppm: 44.4%

## CCc1nn(C)c(C(=O)NCc2ccc(Oc3ccc(C)cc3)cc2)c1Cl [Tolfenpyrad, tolfenpyrad]
[1]
  mortality at 0.2 ppm: 15.9%
[2]
  mortality at 1 ppm: 39.3%

## N#CCNC(=O)c1cnccc1C(F)(F)F [Flonicamid, flonicamid]
alone, 1 ppm ai
  Mortality Observed: 31.4%
alone, 2 ppm ai
  Mortality Observed: 27.2%
